The values that follow come from patent publication US10239849B2 (Merck Sharp & Dohme Corp., priority 2015, dated 2019).

In assay [1] the target is T1, glutathione-S-transferase (GST) tagged LXRbeta LBD (ligand binding domain) (Homo sapiens, UniProt P55055).
T1 construct: purchased Invitrogen pv4658.pps
T1 sequence (P55055 222-460 limits assumed): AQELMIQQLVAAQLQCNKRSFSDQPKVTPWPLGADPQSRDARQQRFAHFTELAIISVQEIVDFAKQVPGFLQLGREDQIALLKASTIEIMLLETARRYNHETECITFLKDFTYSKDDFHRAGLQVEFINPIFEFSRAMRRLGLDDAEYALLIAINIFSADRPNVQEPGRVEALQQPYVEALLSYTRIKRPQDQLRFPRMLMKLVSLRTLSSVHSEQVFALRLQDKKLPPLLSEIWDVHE
The experiment in a line: LanthaScreen TR-FRET Liver X Receptor Coactivator Assay, LXR beta-LBD. The assay is classed as biochemical. As to conditions: for Emax: efficacy in relation to reference dual agonist T1317, read-out: LXR beta activity at max dose (%) (Emax); for EC50: potency (Inflection Point) of co-activator recruitment, TR-FRET, read-out: LXR beta IP. The method in brief:
(§1)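 TR-FRET coactivator recruitment read-out: compounds first received either LBD, followed by a mix of terbium-labelled anti-GST antibody and fluorescein coactivator peptide. Signal measured by time-resolved FRET once plates had incubated at room temperature.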
(In general: In TR-FRET formats the signal depends on donor and acceptor labels being close together.)

Assay [2] addresses T2, glutathione-S-transferase (GST) tagged LXRalpha LBD (ligand binding domain) (Homo sapiens, UniProt Q13133).
T2 construct: purchased Invitrogen pv4655
T2 sequence (Q13133 209-447 limits assumed): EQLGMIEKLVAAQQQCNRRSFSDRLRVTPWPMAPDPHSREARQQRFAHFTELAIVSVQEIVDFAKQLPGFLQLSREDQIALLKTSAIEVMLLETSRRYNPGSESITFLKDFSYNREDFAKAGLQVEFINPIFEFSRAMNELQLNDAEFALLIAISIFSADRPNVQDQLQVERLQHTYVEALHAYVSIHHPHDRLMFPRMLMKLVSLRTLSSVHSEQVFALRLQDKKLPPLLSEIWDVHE
As to the kind of experiment: LanthaScreen TR-FRET Liver X Receptor Coactivator Assay, LXR alpha-LBD. The assay is classed as biochemical. The following applies: for Emax: efficacy in relation to reference dual agonist T1317, read-out: LXR alpha activity at max dose (%) (Emax); for EC50: read-out: LXR alpha IP. An outline of the steps: as §1

Where [3] appears, read: potency (Inflection Point) of co-activator recruitment, TR-FRET.

As usually defined, the Emax is the greatest response seen or fitted, relative to the assay's reference. For `CN(C)C(=O)c1ccc(-c2cnc(N3CCN(S(=O)(=O)c4c(F)cccc4F)CC3)c(C#N)c2)cc1Cl` [Example 1-17, 2-chloro-4-(5-cyano-6-{4-[(2,6-difluorophenyl)sulfonyl]piperazin-1-yl}pyridin-3-yl)-N,N-dimethylbenzamide], the Emax in assay [1] was found to be 98%; in assay [2] it was 36%. Moreover, the figures for the EC50 in assay [1] and in assay [2] (setting [3]) were 43 nM and 4840 nM, respectively.

As for `CN(C)C(=O)c1ccc(-c2ccc(N3CC4CCC(C3)N4C(=O)OC(C)(C)C)c(Cl)c2)cc1Cl` [Example 8-10, tert-butyl 3-[3,3′-dichloro-4′-(dimethylcarbamoyl)biphenyl-4-yl]-3,8-diazabicyclo[3.2.1]octane-8-carboxylate], the maximal response (Emax) in assay [1] is 63%; in assay [2], 64%. Further, the EC50 was 70 nM in assay [1] and 660 nM in assay [2] (setting [3]).

As for `CC(C)S(=O)(=O)N1CCN(c2ncc(-c3ccc(C(=O)N(C)C)c(Cl)c3)cc2C#N)CC1` [Example 1-15, 2-chloro-4-(5-cyano-6-{4-[(1-methylethyl)sulfonyl]piperazin-1-yl}pyridin-3-yl)-N,N-dimethylbenzamide], the maximal response (Emax) in assay [1] was 86%; in assay [2], 43%. The values for the EC50 in assay [1] and in assay [2] (setting [3]) were 437 nM and 19500 nM, respectively.

As for `CN(C)C(=O)c1ccc(-c2cnc(N3CCN(C(=O)C4(c5ccccc5F)CCCC4)CC3)c(C#N)c2)cc1Cl` [Example 2-29, 2-chloro-4-[5-cyano-6-(4-{[1-(2-fluorophenyl)cyclopentyl]carbonyl}piperazin-1-yl)pyridin-3-yl]-N,N-dimethylbenzamide], the maximum response (Emax) in assay [1] amounted to 93%; in assay [2] it was 57%. For the same compound, the EC50 in assay [1] was found to be 15 nM; in assay [2] (setting [3]) it was 4230 nM.

Turning to `CN(C)C(=O)c1ccc(-c2cnc(N3CCN(C(=O)OCc4ccccc4F)CC3)c(C#N)c2)cc1Cl` [Example 3-6, 2-fluorobenzyl 4-{5-[3-chloro-4-(dimethylcarbamoyl)phenyl]-3-cyanopyridin-2-yl}piperazine-1-carboxylate], the Emax in assay [1] is 92%; in assay [2], 50%. Also, the EC50 in assay [1] turned out to be 21 nM; in assay [2] (setting [3]), 6610 nM.

As to `CC(C)(C)OC(=O)N1CCN(c2ncc(-c3ccc(C(=O)NCc4ncc[nH]4)c(Cl)c3)cc2C#N)CC1` [Example 5-16, tert-butyl 4-(5-{3-chloro-4-[(1H-imidazol-2-ylmethyl)carbamoyl]phenyl}-3-cyanopyridin-2-yl)piperazine-1-carboxylate], the Emax amounted to 91% in assay [1] and 68% in assay [2]. In addition, the EC50 in assay [1] was 43 nM; in assay [2] (setting [3]), 1460 nM.

`CN(C)C(=O)c1ccc(-c2cnc(N3CCN(C(=O)OCc4ccccc4Cl)CC3)c(C#N)c2)cc1Cl` [Example 3-9, 2-chlorobenzyl 4-{5-[3-chloro-4-(dimethylcarbamoyl)phenyl]-3-cyanopyridin-2-yl}piperazine-1-carboxylate]: the Emax came to 84% in assay [1] and 39% in assay [2]. Also, the values for the EC50 in assay [1] and in assay [2] (setting [3]) were 155 nM and 8900 nM, respectively.

With `CN(C)C(=O)c1ccc(-c2cnc(N3CCN(S(=O)(=O)c4cccnc4)CC3)c(C#N)c2)cc1Cl` [Example 1-5, 2-chloro-4-{5-cyano-6-[4-(pyridin-3-ylsulfonyl)piperazin-1-yl]pyridin-3-yl}-N,N-dimethylbenzamide], the Emax came out at 85% in assay [1] and 31% in assay [2]. The EC50 was found to be 939 nM in assay [1] and 60500 nM in assay [2] (setting [3]).

Regarding `CN(C)C(=O)c1ccc(-c2cnc(N3CCN(C(=O)[C@](O)(c4ccccc4)C(F)(F)F)CC3)c(C#N)c2)cc1Cl` [Example 2-2, 2-chloro-4-(5-cyano-6-{4-[(2R)-3,3,3-trifluoro-2-hydroxy-2-phenylpropanoyl]piperazin-1-yl}pyridin-3-yl)-N,N-dimethylbenzamide], the Emax in assay [1] is 102%; in assay [2] it was 61%. The EC50 in assay [1] worked out at 1 nM; in assay [2] (setting [3]) it was 617 nM.

Take `CN(C)C(=O)c1ccc(-c2cnc(N3CC4CCC3CN4C(=O)OC(C)(C)C)c(C#N)c2)cc1Cl` (stereo not shown) [Example 8-8, tert-butyl 5-{5-[3-chloro-4-(dimethylcarbamoyl)phenyl]-3-cyanopyridin-2-yl}-2,5-diazabicyclo[2.2.2]octane-2-carboxylate]: the maximal response (Emax) in assay [1] turned out to be 68%; in assay [2] it was 38%. Moreover, the EC50 in assay [1] is 64 nM; in assay [2] (setting [3]), 882 nM.

With `CN(CC(O)c1ccc(O)cc1)C(=O)c1ccc(-c2cnc(N3CCN(C(=O)OC(C)(C)C)CC3)c(C#N)c2)cc1Cl` (stereo not shown) [Example 5-31, tert-butyl 4-[5-(3-chloro-4-{[2-hydroxy-2-(4-hydroxyphenyl)ethyl](methyl)carbamoyl}phenyl)-3-cyanopyridin-2-yl]piperazine-1-carboxylate], the maximal response (Emax) in assay [1] amounted to 67%; in assay [2], 27%. Moreover, the values for the EC50 in assay [1] and in assay [2] (setting [3]) were 1860 nM and 8530 nM, respectively.

As to `CN(C)C(=O)c1ccc(-c2ccc(N3CC4CCC3CN4C(=O)OC(C)(C)C)c(Cl)c2)cc1Cl` (stereo not shown) [Example 4-3, tert-butyl 5-[3,3′-dichloro-4′-(dimethylcarbamoyl)biphenyl-4-yl]-2,5-diazabicyclo[2.2.2]octane-2-carboxylate], the Emax in assay [1] was 87%; in assay [2], 79%. Besides, the EC50 in assay [1] amounted to 39 nM; in assay [2] (setting [3]) it was 1570 nM.

With `CN(C)C(=O)c1ccc(-c2cnc(N3CCN(C(=O)C4(c5ccc(Cl)cc5Cl)CC4)CC3)c(C#N)c2)cc1Cl` [Example 2-34, 2-chloro-4-[5-cyano-6-(4-{[1-(2,4-dichlorophenyl)cyclopropyl]carbonyl}piperazin-1-yl)pyridin-3-yl]-N,N-dimethylbenzamide], the figures for the Emax in assay [1] and in assay [2] were 88% and 49%, respectively. Besides, the EC50 was 25 nM in assay [1] and 12700 nM in assay [2] (setting [3]).

Consider `CN(C)C(=O)c1ccc(-c2cnc(N3CCN(C(=O)C(O)(c4ccccc4)C(F)(F)F)CC3)c(C#N)c2)cc1Cl` (stereo not shown) [Example 2-32, 2-chloro-4-{5-cyano-6-[4-(3,3,3-trifluoro-2-hydroxy-2-phenylpropanoyl)piperazin-1-yl]pyridin-3-yl}-N,N-dimethylbenzamide], for which the maximal response (Emax) in assay [1] amounted to 98%; in assay [2] it was 37%. Further, the values for the EC50 in assay [1] and in assay [2] (setting [3]) were 4 nM and 3050 nM, respectively.

`CN(C)C(=O)c1ccc(-c2cnc(N3CCN(C(=O)[C@](C)(O)C(F)(F)F)CC3)c(C#N)c2)cc1Cl` [Example 2-16, 2-chloro-4-(5-cyano-6-{4-[(2S)-3,3,3-trifluoro-2-hydroxy-2-methylpropanoyl]piperazin-1-yl}pyridin-3-yl)-N,N-dimethylbenzamide]: the maximum response (Emax) in assay [1] amounted to 94%; in assay [2], 58%. Besides, the values for the EC50 in assay [1] and in assay [2] (setting [3]) were 242 nM and 13000 nM, respectively.

Regarding `CN(C)C(=O)c1ccc(-c2ccc(N3CCN(C(=O)c4c(F)cccc4C(F)(F)F)CC3)cc2)cc1Cl` [Example 4-12, 3-chloro-4′-(4-{[2-fluoro-6-(trifluoromethyl)phenyl]carbonyl}piperazin-1-yl)-N,N-dimethylbiphenyl-4-carboxamide], the results for the Emax in assay [1] and in assay [2] were 83% and 20%, respectively. Also, the EC50 in assay [1] is 881 nM. Also, the “LXR alpha IP (nM)” value in assay [2] (setting [3]) is “No IP”.

In the case of `CN(CCCO)C(=O)c1ccc(-c2cnc(N3CCN(C(=O)OC(C)(C)C)CC3)c(C#N)c2)cc1Cl` [Example 5-15, tert-butyl 4-(5-{3-chloro-4-[(3-hydroxypropyl) (methyl)carbamoyl]phenyl}-3-cyanopyridin-2-yl)piperazine-1-carboxylate], the figures for the Emax in assay [1] and in assay [2] were 70% and 42%, respectively. The EC50 in assay [1] came to 261 nM; in assay [2] (setting [3]) it was 6870 nM.

In the case of `CN(C)C(=O)c1ccc(-c2cnc(N3CCN(C(=O)OC(C)(C)C)CC3)c(CO)c2)cc1Cl` [Example 9-3, tert-butyl 4-{5-[3-chloro-4-(dimethylcarbamoyl)phenyl]-3-(hydroxymethyl)pyridin-2-yl}piperazine-1-carboxylate], the Emax in assay [1] was found to be 57%; in assay [2], 34%. Further, the EC50 was 730 nM in assay [1] and 30100 nM in assay [2] (setting [3]).

In the case of `CN(C)C(=O)c1ccc(-c2cnc(N3CCN(S(=O)(=O)c4cccs4)CC3)c(C#N)c2)cc1Cl` [Example 1-6, 2-chloro-4-{5-cyano-6-[4-(thiophen-2-ylsulfonyl)piperazin-1-yl]pyridin-3-yl}-N,N-dimethylbenzamide], the Emax in assay [1] turned out to be 77%; in assay [2], 23%. In addition, the EC50 in assay [1] worked out at 31 nM; in assay [2] (setting [3]) it was 6840 nM.
